Test results reported in patent US20120135952A1, “BUTYRIC ACID SALT OF N,N-DIMETHYL IMIDOCARBON IMIDIC DIAMIDE, METHOD OF PREPARING SAME, AND PHARMACEUTICAL COMPOSITIONS AND COMBINATIONS CONTAINING SAME” (Hanall Biopharma Co., Ltd., priority 2009, published 2012).
Where a name gives a salt, the structure may show the parent alone. Read-outs that look alike come from different tables or passages of the source.

How the values were obtained:
[1] = tested on: lung cancer-derived A549 cells; experiment: MTT assay, cancer cell viability and growth inhibition (A549); conditions: for CELLULAR VIABILITY (%): 72 hours, relative to untreated cells; for IC50: read-out: GROWTH INHIBITORY CONCENTRATION (GIC50), A549, 72 hours, MTT
Procedure: (§1) Human breast cancer-derived MCF7 cells and lung cancer-derived A549 cells were used as a test system.
(§2) MCF7 cells and A549 cells cultured in a DMEM containing 10% fetal bovine serum were respectively dispensed at a cell density of about 5×10^3 cells/well on a 96-well plate, followed by culturing for about 24 hours.
(§3) The resulting formazane crystal was dissolved in dimethyl sulfoxide (DMSO), and absorbance of the solution was measured at 560 nm.

[2] = tested on: Human breast cancer-derived MCF7 cells; experiment: MTT assay, cancer cell viability and growth inhibition (MCF7); conditions: for CELLULAR VIABILITY (%): 72 hours, relative to untreated cells; for IC50: read-out: GROWTH INHIBITORY CONCENTRATION (GIC50), MCF7, 72 hours, MTT
Procedure: as §1, §2, §3

[3] = tested on: lung cancer-derived A549 cells; conditions: human, 72 h
Procedure: as §1, §2, §3

[4] = tested on: Human breast cancer-derived MCF7 cells; conditions: 72 h
Procedure: as §1, §2, §3

| Compound | CELLULAR VIABILITY (%) ([1]; A549, 2 mM) | CELLULAR VIABILITY (%) ([1]; A549, 10 mM) | CELLULAR VIABILITY (%) ([1]; A549, 10 mM, listed as metformin butyrate) | IC50 [1] | CELLULAR VIABILITY (%) ([2]; MCF7, 2 mM) | CELLULAR VIABILITY (%) ([2]; MCF7, 10 mM) | CELLULAR VIABILITY (%) ([2]; MCF7, 10 mM, listed as metformin butyrate) | IC50 [2] | CELLULAR VIABILITY (%) ([3]; 2 mM) | CELLULAR VIABILITY (%) ([3]; 10 mM) | CELLULAR VIABILITY (%) ([4]; 2 mM) | CELLULAR VIABILITY (%) ([4]; 10 mM) | CELLULAR VIABILITY (%) ([1]; A549, 2 mM, hydrochloride) | CELLULAR VIABILITY (%) ([1]; A549, 10 mM, hydrochloride) | CELLULAR VIABILITY (%) ([2]; MCF7, 2 mM, hydrochloride) | CELLULAR VIABILITY (%) ([2]; MCF7, 10 mM, hydrochloride) |
| --- | --- | --- | --- | --- | --- | --- | --- | --- | --- | --- | --- | --- | --- | --- | --- | --- |
| CN(C)C(=N)NC(=N)N [Metformin butyrate, N,N-dimethyl imidodicarbonimidic diamide butyrate] | 57.7% | 11.7% | less than 20% | 2.5 mM | 45.5% | 19.9% | less than 20% | 1.6 mM | – | – | – | – | – | – | – | – |
| CCCC(=O)O [Butyric acid, butyric acid] | – | – | – | 5.2 mM | – | – | – | 2.2 mM | 78.6% | 28.3% | 53.9% | 22.3% | – | – | – | – |
| CN(C)C(=N)N=C(N)N [Metformin hydrochloride, metformin hydrochloride] | – | – | – | 3.6 mM | – | – | – | > 10 mM | – | – | – | – | 63.5% | 39.6% | 86.5% | 73.6% |
